The record followed here is patent publication US20100273876A1, “ANTIBACTERIAL FORMULATION COMPRISING A DIALKYL SULPHOSUCCINATE AND A CARBANILIDE ANTIBACTERIAL AGENT” (priority 2007, published 2010).

SMILES strings stand for the structures. Where only a bound is given, the exact number is not on record here.

Assay [1] relates to P. acnes NCTC 737. In words: Disc diffusion / synergy disc diffusion assay ((S)DDA). The assay is classed as cell-based, Propionibacterium acnes. The conditions noted are these: for SDDA area increase / SDDA increase: 200 μg DOS salt + 200 μg TCC; for SDDA with TCC: 200 μg DOS salt + 200 μg TCC on one disc; for SDDA increase: vs greater single-compound zone; for DDA + salt: sodium chloride 100 mM; for DDA + lipid: triolein 1% v/v. Here is the method: (§1) The propionibacteria were cultured and maintained on Wilkins-Chalgren Anaerobe Medium (agar and broth) at pH 6.0; all cultures were incubated anaerobically at 37° C. for 72 hours.
(§2) A sterile paper disc was impregnated with a sample of the test compound in a suitable solvent and 30 minutes allowed for the solvents to evaporate (where possible). The disc was then placed on an agar plate onto which the test micro-organism had been inoculated. The plate was then incubated under the conditions described above, following which it was examined visually for signs of microbial growth. If the test compound had antimicrobial activity, a circular zone of no growth would be obtained around the disc. The diameter of this zone of “inhibition” was measured using a ProtoCOL™ automated zone sizer (Synbiosis, Cambridge, UK). In general, a greater diameter and/or area of the zone of inhibition indicates a greater antimicrobial activity in the relevant test compound, although other factors such as test compound mobility through the agar gel may also influence the result.
(§3) Two test a compounds A and B were placed on a single paper disc and the above described DDA procedure repeated. An increase in diameter of the zone of inhibition, compared to the greater of the zone diameters for the two compounds individually, was taken to indicate potential antimicrobial synergy. In practical terms, an increase of greater than 5 mm could be treated as significant.
Both the DDA and the SDDA test may be carried out using an agar gel supplemented with lipid and/or salt to simulate some of the major components present in human skin and to assess whether these substances might reduce the antimicrobial activity observed for the test compound. Performance under these conditions can provide a more reliable indication of activity on topical application. The supplements used in Examples 1, 11, 12 and 13 below were lipid (either Tween™ 80 at 1% v/v (Example 1) or triolein at 1% v/v (Examples 11, 12 and 13) and sodium chloride (100 mM).

In assay [2] the test system is Por. gingivalis NCTC 11834. In words: (S)DDA disc diffusion. In kind it is cell-based, Porphyromonas gingivalis. The conditions noted are these: for SDDA with TCC: 200 μg DOS salt + 200 μg TCC on one disc; for DDA: 200 μg per disc. Here is the method:
(§4) The P. gingivalis strains were cultured and maintained on Wilkins-Chalgren Anaerobe Medium (agar and broth) at pH 7.0; all cultures were incubated anaerobically at 37° C. for 5-7 days.
as §2, §3
(§5) For the (S)DDA experiments; 200 μg of the DOS salts and/or the TCC were loaded onto each disc for Por. gingivalis experiments. For the Strep. mutans experiments, 200 μg of the TCC and 50 μg of DOSS were used on each disc. All the experiments were conducted in triplicate.
(A growth-free zone around the sample is the usual read-out of agar diffusion tests.)

Assay [3] has as its system Por. gingivalis NCTC 11834. In words: MIC assay, liquid medium. The assay is classed as cell-based, Porphyromonas gingivalis. The protocol: as §4
(§6) This is a standard international method for quantitatively assessing the antimicrobial activity of a compound in a liquid medium. The method used a sterile 96-well microtitre plate, capable of holding about 200 μl of liquid per well. The wells contained liquid culture medium and ranges of decreasing concentrations of the relevant test compound in doubling dilutions (eg, 1000, 500, 250, 125 . . . μg/ml, etc. down to 0.49 μg/ml). The culture media were as described above.
(§7) The wells were inoculated with a liquid suspension of freshly grown micro-organism and incubated under the conditions described above. After incubation, the microtitre plate was examined visually (with the aid of a light box) for cloudiness in each well, which would indicate microbial growth. The MIC value was recorded as the lowest concentration of test compound required to inhibit microbial growth, ie, the lowest concentration for which the liquid in the well remained clear.
(§8) The assays included both negative (culture medium with no micro-organisms) and positive (culture medium plus diluting solvent plus micro-organism) controls.

For assay [4], the system named is Por. gingivalis NCTC 11834. In words: MBC assay. In kind it is cell-based, Porphyromonas gingivalis. Here is the method: The P. gingivalis strains were cultured and maintained on Wilkins-Chalgren Anaerobe Medium (agar and broth) at pH 7.0; all cultures were incubated anaerobically at 37° C. for 5-7 days. This assay, normally carried out after an MIC assay, determines the rnininiurn concentration of a compound that is lethal to the micro-organism being tested. […] These samples were then individually sub-cultured on antibiotic-free agar medium, under the incubation conditions described above. Following incubation they were examined visually for microbial growth.

Assay [5] deals with Strep. mutans ATCC 25175. In words: (S)DDA disc diffusion. The assay is classed as cell-based, Streptococcus mutans. The conditions noted are these: 200 μg per disc. Here is the method:
(§9) The S. mutans was cultured and maintained on Wilkins-Chalgren Anaerobe Medium (agar and broth) at pH 7.0 supplemented with 1 g/L glucose; all cultures were incubated at 37° C. for 48 h in an atmosphere containing 5% CO2.
as §2, §3, §5

Assay [6] relates to Strep. mutans ATCC 25175. In words: MIC assay, liquid medium. In kind it is cell-based, Streptococcus mutans. Here is the method: as §9, §6, §7, §8
Assay [7] has as its system P. acnes NCTC 737. In words: Minimum bactericidal concentration (MBC) assay. The assay is classed as cell-based, Propionibacterium acnes. Here is the method:
The propionibacteria were cultured and maintained on Wilkins-Chalgren Anaerobe Medium (agar and broth) at pH 6.0; all cultures were incubated anaerobically at 37° C. for 72 hours. This assay, normally carried out after an MIC assay, determines the rnininiurn concentration of a compound that is lethal to the micro-organism being tested. […] These samples were then individually sub-cultured on antibiotic-free agar medium, under the incubation conditions described above. Following incubation they were examined visually for microbial growth.

Assay [8] concerns Strep. mutans ATCC 25175. In words: MBC assay. In kind it is cell-based, Streptococcus mutans. The protocol: The S. mutans was cultured and maintained on Wilkins-Chalgren Anaerobe Medium (agar and broth) at pH 7.0 supplemented with 1 g/L glucose; all cultures were incubated at 37° C. for 48 h in an atmosphere containing 5% CO2. This assay, normally carried out after an MIC assay, determines the rnininiurn concentration of a compound that is lethal to the micro-organism being tested. […] These samples were then individually sub-cultured on antibiotic-free agar medium, under the incubation conditions described above. Following incubation they were examined visually for microbial growth.

The subject of assay [9] is P. acnes NCTC 737. In words: Minimum inhibitory concentration (MIC) assay, liquid medium. In kind it is cell-based, Propionibacterium acnes. The protocol:
as §1, §6, §7, §8

The test system of a further assay is Por. gingivalis 381. In words: Biofilm disruption assay on hydroxyapatite discs. The assay is classed as cell-based, Porphyromonas gingivalis. The conditions noted are these: Por. gingivalis 381 biofilm, DOSS 0.5% (w/v), CHX 0.2% (w/v). Here is the method:
(§10) This assay was designed to determine quantitatively the relative potency of a test compound to disrupt (effectively kill) biofilms formed by a test organism on hydroxyapatite (HA) discs.
(§11) Biofilms were formed on sterile dense ceramic HA discs 7 mm diameter x 1.8 mm thick (Clarkson Chromatography) by placing the discs in the appropriate liquid media (as described above) inoculated with the test organism (0.5×10^8 cfu/ml). The HA discs were then incubated at 37° C. for ˜48 h in a 5% CO2 atmosphere (for Strep. mutans ATCC 25175) or ˜96 h under anaerobic conditions (for Por. gingivalis 381). Following the incubation period the supernatant was removed from the wells containing the HA discs and the discs were washed×3 with fresh media to ensure all planktonic cells were removed. The HA discs were then transferred to sterile bijoux bottles containing 1 ml of phosphate buffered saline (PBS) plus test compound(s) at the required concentration. After a set time period (usually 2 and/or 5 min), the HA disc was transferred to another sterile bijoux containing 1 ml of fresh growth media. Adherent cells were then harvested by vigorous vortexing for 2 minutes. A sample was then taken, serially diluted 10-fold in fresh growth media and inoculated onto agar plates in triplicate. Untreated HA discs, and HA discs added to PBS containing only the solvents used to dissolve the test compound(s), acted as controls.
(§12) The plates were then incubated as described above and subsequently examined visually for growth. Colonies were counted at an appropriate serial dilution (5-50 individual colonies visible) with the aid of a colony counter. These measurements were then converted to numbers of colony forming units (cfu), using the formula: cfu/ml=number of colonies×serial dilution factor×100 (as only a 10 μl sample was taken).
(§13) These cfu values were then converted into log10 values and plotted graphically against time of sample removal.
(§14) At each time point, samples were assessed in triplicate; the final cfu/ml value was an average (mean) of the three readings.
(§15) Biofilm disruption assays, as described above, were carried out using DOSS as the test compound and chlorhexidine (CHX) as a positive control. For these experiments, the DOSS was tested at 0.5% w/v against Por. gingivalis and 1% w/v against Strep. mutans. The ahlorhexidine was tested at a concentration of 0.2% w/v against both micro-organisms. The DOSS was dissolved in ethanol and the chlorhexidine in distilled water. All the experiments were conducted in triplicate.

Assay [10] deals with Strep. mutans ATCC 25175. In words: Biofilm disruption assay on hydroxyapatite discs. The assay is classed as cell-based, Streptococcus mutans. The conditions noted are these: Strep. mutans ATCC 25175 biofilm, DOSS 1.0% (w/v), CHX 0.2% (w/v). The protocol: as §10, §11, §12, §13, §14, §15
The mark [11] stands for this setting: 200 μg of each test compound per disc (Example 2).
[12] abbreviates: 200 μg per disc, pH 6.0, single replicates.

In general, MIC refers to the smallest concentration in the dilution series that meets the test's criterion for growth inhibition. Low values mean inhibition by little substance, high ones a need for much substance. The MBC is the lowest tested concentration that kills the bacteria rather than only halting them.

As to `CCCCC(CC)COC(=O)CC(C(=O)OCC(CC)CCCC)S(=O)(=O)[O-].CCCCC(CC)COC(=O)CC(C(=O)OCC(CC)CCCC)S(=O)(=O)[O-].[Ca+2]` (stereo not drawn) [DOS calcium salt], the SDDA area increase is 128.93% with P. acnes NCTC 737 [1] and 38.64% in [2]. The “SDDA with TCC” value in the assay on P. acnes NCTC 737 [1] is given as 36.16 mm; in assay [2], 61.31 mm. Moreover, the SDDA increase in the assay with P. acnes NCTC 737 [1] was determined as 12.26 mm; in assay [2], 9.24 mm. Further, the DDA in the assay with P. acnes NCTC 737 [1] (setting [11]) was determined as 23.9 mm; with P. acnes NCTC 737 [1] (setting [12]), 44.71 mm; in assay [2], 52.07 mm; in the assay on Strep. mutans ATCC 25175 [5], 32.13 mm. The “DDA + salt” value in the assay with P. acnes NCTC 737 [1] (200 μg per disc, pH 6.0) is listed as 43.16 mm. For the same compound, the “DDA + lipid” value in the assay with P. acnes NCTC 737 [1] (200 μg per disc, pH 6.0) was determined as 49.36 mm. Also, the MIC turned out to be 3.9 µg/mL in assay [3], 15.6 µg/mL in the assay on Strep. mutans ATCC 25175 [6] and 15.6 µg/mL in the assay on P. acnes NCTC 737 [9]. Moreover, the MBC in [4] was 7.8 µg/mL; against P. acnes NCTC 737 [7] it was greater than 31.25 µg/mL; in the assay on Strep. mutans ATCC 25175 [8], 31.25 µg/mL. Moreover, the values for the MIC/MBC ratio (in [4]; with P. acnes NCTC 737 [7]; in the assay on Strep. mutans ATCC 25175 [8]) were 0.5, less than 0.5 and 0.5, respectively.
With `[H]/N=C(\N/C(=N/[H])NCCCCCCNC(=N)NC(=N)Nc1ccc(Cl)cc1)Nc1ccc(Cl)cc1` [CHX, chlorhexidine], the Viable cell counts stood at 7.53 log10 cfu/ml in the assay with Por. gingivalis 381 (0 min); 6.50 log10 cfu/ml in the assay with Por. gingivalis 381 (2 min); 6.76 log10 cfu/ml in the assay with Por. gingivalis 381 (5 min); 6.56 log10 cfu/ml with Strep. mutans ATCC 25175 [10] (0 min); 6.12 log10 cfu/ml in the assay on Strep. mutans ATCC 25175 [10] (2 min); 5.99 log10 cfu/ml with Strep. mutans ATCC 25175 [10] (5 min).
In the case of `CCCCC(CC)COC(=O)CC(C(=O)OCC(CC)CCCC)S(=O)(=O)[O-].[K+]` (stereo not drawn) [DOS potassium salt], the SDDA area increase is 99.37% in the assay with P. acnes NCTC 737 [1] and 43.78% in assay [2]. For the same compound, the “SDDA with TCC” value with P. acnes NCTC 737 [1] worked out at 36.68 mm; in [2] it was 61.31 mm. Moreover, the SDDA increase worked out at 10.7 mm in the assay on P. acnes NCTC 737 [1] and 10.18 mm in assay [2]. In addition, the DDA with P. acnes NCTC 737 [1] (setting [11]) was 25.91 mm; in the assay with P. acnes NCTC 737 [1] (setting [12]), 46.57 mm; in assay [2], 51.13 mm; in the assay on Strep. mutans ATCC 25175 [5], 35.28 mm. Moreover, the “DDA + salt” value in the assay on P. acnes NCTC 737 [1] (200 μg per disc, pH 6.0) amounted to 46.26 mm. Besides, the “DDA + lipid” value in the assay with P. acnes NCTC 737 [1] (200 μg per disc, pH 6.0) is 48.12 mm. Further, the MIC in assay [3] turned out to be 3.9 µg/mL; against Strep. mutans ATCC 25175 [6], 15.6 µg/mL; with P. acnes NCTC 737 [9] it was 7.8 µg/mL. Moreover, the MBC worked out at 7.8 µg/mL in [4], 62.5 µg/mL against P. acnes NCTC 737 [7] and 31.25 µg/mL in the assay with Strep. mutans ATCC 25175 [8]. For the same compound, the MIC/MBC ratio in [4] is 0.5; with P. acnes NCTC 737 [7], 0.125; in the assay on Strep. mutans ATCC 25175 [8], 0.5.
